Measured values from patent publication US10314883B2, “Compositions and methods for regulating blood pressure” (University of Virginia Patent Foundation, priority 2015, dated 2019).
Where two headings read alike, the source gives them in different places.

Experiments:
abdominal aortic rings = assay: Wire myography of abdominal aortic rings; assay type: cell-based, mouse; settings: for EC50: Mus musculus, read-out: EC50 of phenylephrine, aortic ring contraction
[1] = system: thoracodorsal arteries (TDA)
[2] = system: thoracodorsal arteries (TDA); assay: tissue or blood; settings: Mus musculus
[3] = system: thoracodorsal arteries (TDA); assay: Pressure myography of TDAs electroporated with Panx1 WT or YLK>AAA plasmid; assay type: cell-based, mouse; settings: for EC50: Mus musculus, read-out: EC50 of phenylephrine-induced constriction
Description: The contractile responses of pressurized thoracodorsal arteries (TDA) were measured as previously described. Briefly, TDA were isolated and placed in cold Krebs-HEPES until cannulation in a pressure arteriograph (Danish MyoTechnology). After a 30 minute equilibration period, cumulative concentrations of contractile agonists were applied to the TDA pressurized at 80 mmHg, and the vessel was visualized with an Olympus IX-71 microscope attached to a Hamamatsu EM-CCD camera coupled to Slidebook imaging software. […] Lastly, maximal diameter was measured at the end of each experiment in calcium-free Krebs-HEPES supplemented with EGTA (1 mmol/L) and sodium nitroprusside (10 μmol/L). In cases where the vessels were not constricting to the contractile agonist, their viability was assessed by applying 40 mM KCl and only TDA reaching 30% of the maximal diameter were considered for analysis. The contractile responses, as well as the basal tone, are expressed as a percentage of the maximal diameter.
Vessel transfection was performed as previously described by us. Briefly, after isolation, TDA were placed in cold, sterile RPMI supplemented with penicillin […] (Gibco), CaCl2 (2 mmol/L) and 1% BSA. Vessels were transferred to a cuvette containing 100 μL of Nucleofector solution (Lonza) containing 5 μg of plasmid, and subjected to electroporation. Arteries were then placed in supplemented RPMI media in an incubator for 14 to 18 hours until cannulation in the pressure arteriograph as described above.
We further tested the importance of the YLK sequence within the intracellular loop of Panx1 on phenylephrine-induced vasoconstriction using rescue experiments with intact arteries from mice lacking endogenous Panx1. We reintroduced Panx1 into the SMCs of TDAs from Cre^+/Panx1^F1 mice that had received tamoxifen by selectively transfecting these cells with a plasmid encoding Panx1^WT.

Panx1 = target: T1, Panx1 (Mus musculus, UniProt Q9JIP4); assay: ATP release from HEK293 cells cotransfected with mPanx1 and α1DAR; assay type: cell-based; settings: peptide 3 μmol/L, phenylephrine 100 μmol/L
T1 construct: we progressively substituted amino acids in this region of full-length Panx1 with alanine residues; HA; expressed in transfected cells; host or cells: HEK293T cells, transient co-transfection with alpha1DAR plasmid (Origene, NM_013460, C-terminal Myc-DDK)
Description: Human Embryonic Kidney (HEK) 293T cells were cultured as previously described, and were used until passage 20. For ATP measurements, 50,000 cells/well were seeded in 24 well plates pre-coated with 0.01% poly-L-lysine, and transfected using Lipofectamine 2000 (Invitrogen) according to the manufacturer protocol. Briefly, 0.4 μg of α1DAR and 0.4 μg of Panx1^WT, Panx1^KYP>AAA, Panx1^IVEQ>AAA or Panx1^YLK>AAA plasmids were added to each well along with 2 μl of Lipofectamine 2000. For electrophysiology measurements, 4 μg of α1DAR plasmid, 2 μg of Panx1^WT, Panx1^KYP>AAA, Panx1^IVEQ>AAA or Panx1^YLK>AAA plasmids, and 0.5 μg of GFP plasmid were mixed with 10 μl Lipofectamine 2000 and added to a well of 6-well plate seeded with ˜70% confluent HEK cells. Cells were split the next morning and plated onto a glass coverslip for recording. […]
The ectonucleotidase inhibitor ARL67156 (300 μmol/L) was applied to each well. […] The ATP concentration was measured by adding 50 μL of luciferin:luciferase reagent (ATP bioluminescence assay kit HSII; Roche), which was injected into each well and the luminescence was immediately recorded. Data are expressed as a percent increase in ATP concentration compared to unstimulated condition. […] Data were analyzed using a Kruskall Wallis test (non-parametric one-way ANOVA) followed by Dunn's post-hoc test.

resistance arterioles = assay: Diameter of resistance arterioles isolated from adipose tissue of hypertensive subjects; assay type: cell-based, human; settings: arterioles from treatment resistant hypertension patients
Source text: The resistance arterioles were isolated from adipose tissue. Treatment resistant hypertension: >3 continue to have high blood pressure.

[4] = aortic rings from Cre^+/Panx1^FL with tamoxifen
[5] = aortic rings from Cre^+/Panx1^FL, peanut oil
[6] = TDAs from Cre^+/Panx1^FL with tamoxifen + Panx1^WT
[7] = TDAs from Cre^+/Panx1^FL with tamoxifen + Panx1^YLK>AAA
[8] = TDAs from Cre^+/Panx1^FL with tamoxifen, electroporated without plasmid
[9] = TDAs from Cre^+/Panx1^FL, no tamoxifen, electroporated without plasmid

T1 sequence (Q9JIP4 whole entry): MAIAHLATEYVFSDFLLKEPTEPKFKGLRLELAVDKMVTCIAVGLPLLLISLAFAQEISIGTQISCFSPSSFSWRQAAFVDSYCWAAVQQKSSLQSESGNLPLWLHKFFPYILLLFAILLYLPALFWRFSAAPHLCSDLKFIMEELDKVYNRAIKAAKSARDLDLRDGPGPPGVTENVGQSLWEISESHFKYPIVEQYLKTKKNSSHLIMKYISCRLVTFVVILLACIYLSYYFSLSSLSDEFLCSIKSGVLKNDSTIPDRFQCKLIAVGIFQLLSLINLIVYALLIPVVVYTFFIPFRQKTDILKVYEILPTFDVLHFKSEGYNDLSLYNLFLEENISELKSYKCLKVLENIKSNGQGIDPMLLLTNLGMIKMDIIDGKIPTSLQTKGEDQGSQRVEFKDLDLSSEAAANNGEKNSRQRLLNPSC

Compound: CNC[C@H](O)c1cccc(O)c1 [Phenylephrine, phenylephrine]
- EC50 (abdominal aortic rings; [4]): 3.2 ± 0.32 µM
- EC50 (abdominal aortic rings; [5]): 3.39 ± 0.38 µM
- EMAX of phenylephrine, aortic ring contraction (abdominal aortic rings; [4]): 343.4 ± 69.4 percentage of constriction to KCl
- EMAX of phenylephrine, aortic ring contraction (abdominal aortic rings; [5]): 368.8 ± 78.7 percentage of constriction to KCl
- EMAX of agonist for TDA constriction ([1]; TDAs from Cre^+/Panx1^FL mice, tamoxifen-injected (SMC Panx1 knockout)): 69.1 ± 3.06 percentage of maximal diameter
- EMAX of agonist for TDA constriction ([1]; TDAs from Cre^+/Panx1^FL mice, tamoxifen-injected (SMC Panx1 knockout), listed as phenylephrine): 69.1±3.06 percentage of maximal diameter
- EMAX of agonist for TDA constriction ([1]; TDAs from Cre^+/Panx1^WT mice, tamoxifen-injected): 53.5 ± 4.91 percentage of maximal diameter
- EMAX of agonist for TDA constriction ([1]; TDAs from Cre^−/Panx1^FL mice, tamoxifen-injected): 46.3 ± 5.94 percentage of maximal diameter
- EMAX of agonist for TDA constriction ([1]; TDAs from Cre^−/Panx1^WT mice, tamoxifen-injected): 51.8 ± 2.66 percentage of maximal diameter
- EMAX of agonist for TDA constriction ([1]; TDAs isolated from the three control genotypes): approximately 50 % of maximal diameter
- EC50 ([2]; read-out: EC50 of agonist for TDA constriction, TDAs from Cre^+/Panx1^FL mice, tamoxifen-injected (SMC Panx1 knockout)): 7.84 ± 5.6 µM
- EC50 ([2]; read-out: EC50 of agonist for TDA constriction, TDAs from Cre^+/Panx1^WT mice, tamoxifen-injected): 1.79 ± 1.13 µM
- EC50 ([2]; read-out: EC50 of agonist for TDA constriction, TDAs from Cre^−/Panx1^FL mice, tamoxifen-injected): 0.64 ± 0.37 µM
- EC50 ([2]; read-out: EC50 of agonist for TDA constriction, TDAs from Cre^−/Panx1^WT mice, tamoxifen-injected): 0.66 ± 0.13 µM
- EC50 [3, 6]: 0.45 ± 0.33 µM
- EC50 [3, 7]: 0.63 ± 0.53 µM
- EC50 [3, 8]: 1.13 ± 0.77 µM
- EC50 [3, 9]: 0.64 ± 0.23 µM
- EMAX of phenylephrine-induced constriction [3, 6]: 34.2 ± 6.15 percentage of maximal diameter
- EMAX of phenylephrine-induced constriction [3, 7]: 56.9 ± 5.84 percentage of maximal diameter
- EMAX of phenylephrine-induced constriction [3, 8]: 57.5 ± 9.20 percentage of maximal diameter
- EMAX of phenylephrine-induced constriction [3, 9]: 32.9 ± 4.85 percentage of maximal diameter

Compound: scrambled intracellular loop 2 IYLYVEQKPY (SEQ ID NO: 7) linked with a TAT sequence [Scrambled IL2]
- effect on phenylephrine-induced ATP release (Panx1): no effect

Compound: KYPIVEQYLKYGRKKQRRR [IL2]
- effect on phenylephrine-induced ATP release (Panx1): significantly decreased
- effect on hyperconstriction of resistance arterioles (resistance arterioles): significantly reduces hyperconstriction
